Data on 11 substances can be found in patent US20260199444A1, “VACCINES AGAINST PROTEIN TYROSINE PHOSPHATASE RECEPTOR TYPE Z1 (PTPRZ1) -POSITIVE TUMORS” (ALTEVAX, priority 2022, published 2026).

Assay [1] relates to HLA-A2/DR1 mice. The assay is described as follows: Melanin-based vaccine (plus CpG-28) subcutaneous immunization, CD8 T-cell response by IFNg-SFC count of re-stimulated splenocytes. It is filed as in vivo. The conditions noted are these: for T-cell Immune response: mean +/− SEM (number of mice): peptide 10 μg/mouse with synthetic melanin (peptide/L-Dopa 1/4) and CpG-28 10 μg/mouse, subcutaneous, day 8, splenocytes re-stimulated with the corresponding MHC class I epitope; for immune response after immunization (in words): melanin-based vaccine, HLA-A2/DR1 mice. From the text: For the purpose of selecting a relevant PTPRZ1 antigen to be used in human patients, several peptides containing various PTPRZ1 immune epitopes were screened. The immunogenicity of these various peptides were screened by vaccinations in HLA-A2/DR1 mice (also known as Surel1 model). HLA-A2/DR1 mice are transgenic mice mimicking the human's immune system. As a vaccine procedure for screening, a melanin-based vaccine was used, as described in WO2021165306.
Using a melanin-based vaccine in HLA-A2/DR1 mice, these epitopes were then screened using peptides (SEQ ID NO: 5 to SEQ ID NO: 8) containing the epitope and an additional cysteine at the NH2-terminal, as it was disclosed in WO2021165306 that this modification increases the efficacy of melanin-based vaccine.
For immunizations, L-Dopa (0.8 mg/ml) underwent an oxidative polymerization at pH 8.5 in aerobic conditions for 2 hours at 60° C. The reaction mixture was then filtered on a 10 kDa filter, and the retentate containing the synthetic melanin was resuspended in phosphate buffer. Peptides (10 μg/mouse) containing the epitopes (underlined) were then added (at the weight ratio peptide/L-Dopa=1/4) and the mixtures were used for subcutaneous immunizations in mice. Phosphorothioate oligonucleotide CpG-28 (5′-[…], SEQ ID NO: 16) was added to vaccine formulations (10 μg/mouse) just before the immunizations. Mice were sacrificed on day 8 and the CD8 T-cell response was performed as described in Carpentier; 2017. Briefly, splenocytes were re-stimulated in vitro with the corresponding MHC class I-epitope (non-conjugated to melanin) and the numbers of IFNg-SFCs (Spot forming cells) were measured and expressed as Mean+/−S.E.M.

A further assay deals with patients. Conditions: glioblastoma patients, Hilf et al (2019); cited from earlier work.
The subject of assay [2] is HLA-A2/DR1 mice. Description: Peptide plus CpG-28 without melanin, subcutaneous immunization, CD8 T-cell response by IFNg-SFC count of re-stimulated splenocytes. Format: in vivo. The conditions noted are these: for T-cell Immune response: mean +/− SEM (number of mice): peptide 10 μg/mouse with CpG-28 10 μg/mouse, no melanin, subcutaneous, day 8, splenocytes re-stimulated with the corresponding MHC class I epitope. The procedure: In a different adjuvant formulation, SEQ ID NO: 4 and SEQ ID NO: 14 were studied in HLA-A2/DR1 mice.
The peptides (10 μg/mouse) were mixed with the TLR9 agonist CpG-28 (SEQ ID NO: 16) (10 μg/mouse) and the mixtures were used for subcutaneous immunizations in mice. Mice were sacrificed on day 8 and the CD8 T-cell response was performed as described in Carpentier; 2017. Briefly, splenocytes were re-stimulated in vitro with the corresponding MHC class I-epitope (non-conjugated to melanin) and the numbers of IFNg-SFCs (Spot forming cells) were measured and expressed as Mean+/−S.E.M.

The next assay relates to transgenic SURE mice. The assay is described as follows: Cross reactivity of T-cell responses after immunization with SEQ 14, splenocytes re-stimulated with SEQ 14 or native epitope SEQ 4. Format: in vivo. Conditions: immunized with SEQ ID NO: 14, day 8, re-stimulation 18 hours, 5 μg/ml to 0.3 ng/ml, FIG. 1. As for the experimental part: FIG. 1: cross reactivity of T-cell responses obtained after immunizations with SEQ 14 in transgenic SURE mice. Mice were immunized against SEQ 14, as described in table 1, and sacrificed on day 8. The splenocytes (5.10^5 cells/well) were re-stimulated in vitro for 18 hours with either SEQ 14 or the native epitope SEQ 4 (both non-conjugated to melanin), at various concentrations (5 μg/ml to 0.3 ng/ml) and the numbers of IFNg-SFCs (Spot forming cells) were measured after a 18-hour incubation (representative experiments from 3 experiments)
Mice were thus immunized with SEQ ID NO: 14, and it was checked whether T-cell response triggered by SEQ ID NO: 14 was able to similarly recognize the mutated epitote SEQ ID NO: 15 and the native epitope SEQ ID NO: 4.

Take CVLDSHIHAYVNALLIPGPAGK [SEQ ID NO: 6]: the “T-cell Immune response: mean +/− SEM (number of mice)” value (shortened to “T-cell Immune response: mean +/− SEM”) in the assay with HLA-A2/DR1 mice [1] is reported as 7 +/− 5 (n = 4) IFNg-SFCs.

As for “MIWEHNVEV [SEQ ID NO: 4, reference compound]”, the “reactive CD8+ T cells against the peptide after immunization of patients” value in the assay with patients was “found in some patients”. In addition, the “T-cell Immune response: mean +/− SEM” value is reported as 11 +/− 4 (n = 7) IFNg-SFCs in the assay with HLA-A2/DR1 mice [2] and 3 +/− 1 (n = 7) IFNg-SFCs in the assay on HLA-A2/DR1 mice [1].

Turning to “P MIWEHNVEV (PMIWEHNVEV) [SEQ ID NO: 10]”, the “T-cell Immune response: mean +/− SEM” value in the assay on HLA-A2/DR1 mice [1] is on record as 40 +/− 15 (n = 7) IFNg-SFCs.

As for “KK KIWEHNVEV (KKKIWEHNVEV) [SEQ ID NO: 14]”, the “T-cell Immune response: mean +/− SEM” value in the assay with HLA-A2/DR1 mice [2] is on record as 25 +/− 13 (n = 7) IFNg-SFCs; with HLA-A2/DR1 mice [1], 287 +/− 26 (n = 8) IFNg-SFCs. Further, the “CD8 immune response after immunization without melanin (in words)” value with HLA-A2/DR1 mice [2] (peptide with CpG-28, no melanin, compared with SEQ ID NO: 4) was “more potent”. Also, the “immune response after immunization (in words)” value in the assay with HLA-A2/DR1 mice [1] is reported as “strong CD8 immune response”. Besides, the “reactivity against the native epitope (SEQ ID NO: 4) of lymphocytes primed with the modified epitope, compared with reactivity against the modified epitope” value in the assay with transgenic SURE mice is given as “even higher”.

For the substance KIWEHNVEV [SEQ ID NO: 15], the “T-cell Immune response: mean +/− SEM” value with HLA-A2/DR1 mice [1] is listed as 118 +/− 26 (n = 7) IFNg-SFCs.

With “KP MIWEHNVEV (KPMIWEHNVEV) [SEQ ID NO: 13]”, the “T-cell Immune response: mean +/− SEM” value in the assay with HLA-A2/DR1 mice [1] was 80 +/− 34 (n = 7) IFNg-SFCs.

For the substance CKVFAGIPTV [SEQ ID NO: 5], in the assay on HLA-A2/DR1 mice [1], the “immune response after immunization (in words)” value was “powerful immune response” and the “T-cell Immune response: mean +/− SEM” value was 288 +/− 37 (n = 8) IFNg-SFCs.

C AIIDGVESV (CAIIDGVESV) [SEQ ID NO: 7]: in the assay on HLA-A2/DR1 mice [1], the “T-cell Immune response: mean +/− SEM” value was 3 +/− 1 (n = 4) IFNg-SFCs.

With “H MIWEHNVEV (HMIWEHNVEV) [SEQ ID NO: 11]”, the “T-cell Immune response: mean +/− SEM” value in the assay with HLA-A2/DR1 mice [1] is given as 60 +/− 25 (n = 7) IFNg-SFCs.

On to C MIWEHNVEV (CMIWEHNVEV) [SEQ ID NO: 8], for which, in the assay with HLA-A2/DR1 mice [1], the “immune response after immunization (in words)” value is on record as “able to trigger an immune response” and the “T-cell Immune response: mean +/− SEM” value is on record as 24 +/− 8 (n = 8) IFNg-SFCs. Also, the “immune response after immunization (in words)” value in the assay with HLA-A2/DR1 mice [1] (listed as SEQ 8) is “weak”.

For “PK MIWEHNVEV (PKMIWEHNVEV) [SEQ ID NO: 12]”, in the assay with HLA-A2/DR1 mice [1], the “T-cell Immune response: mean +/− SEM” value is 61 +/− 30 (n = 7) IFNg-SFCs.
